From patent US20060189590A1, “Alkaline salts of proton pump inhibitors” (priority 2003, published 2006)

Assays:
Type in all cases: physicochemical
[1] = Storage stability at 70° C. for one week (discolouration, decomposition); conditions: for stability, discolouration and decomposition on storage: 70° C., one week, identical conditions for both salts
[2] = Storage stability under atmospheric conditions at 60-70° C. (by-products, HPLC purity)
Text: The compounds according to the invention and their hydrates can be used for the treatment and prevention of all disorders, which can be treated or prevented by using PPI. In particular, the compounds according to the invention and their hydrates can be used for treating gastric disorders. In this context particular mention should be made of the relatively high stability of compounds according to the invention and their hydrates. […] This relatively high storage stability makes the compounds according to the invention and their hydrates particularly suitable for use in medicaments.

[3] = Dissolution compared with racemic pantoprazole magnesium dihydrate

| SMILES | stability, discolouration and decomposition on storage [1] | stability properties / stable storage form (general statement) ([1]; compared to the sodium salt of (−)-pantoprazole) | purity (according to HPLC) before storage ([2]; start value) [%] | purity (according to HPLC) after storage ([2]; storage under atmospheric conditions at 60-70° C.) | dissolution [3] | sum of by-products on storage ([2]; storage under atmospheric conditions, 60-70° C.) |
| --- | --- | --- | --- | --- | --- | --- |
| COc1ccnc(C[S+]([O-])c2nc3cc(OC(F)F)ccc3[n-]2)c1OC.[Na+] (single isomer, unassigned; (-)) [(−)-pantoprazole sodium] | changes to brown, with formation of considerable amounts of decomposition products | does not form a stable storage form | 99.5 | 96-97% | – | – |
| COc1ccnc(C[S+]([O-])c2nc3cc(OC(F)F)ccc3[n-]2)c1OC.O.[Mg+2].[OH-] (stereo not drawn) [Example 2, Magnesium (−)-{[5-(difluoromethoxy)]-2-[(3,4-dimethoxy-2-pyridinyl)methylsulphinyl]-1H-benzimidazolide}hydroxy monohydrate] | completely stable for one week and shows virtually no discolouration or decomposition | – | – | – | faster dissolution than the racemic pantoprazole magnesium dihydrate | remains virtually constant |
